From patent US20170066717A1, “NEW PHENYLAZETIDINECARBOXYLATE OR -CARBOXAMIDE COMPOUNDS” (INVENTIVA, priority 2014, published 2017)

How the values were obtained:
[1] = molecular target: T1, NURR-1/RXRα (Homo sapiens, UniProt P19793); assay: Transactivation test, NURR-1-Gal4/RXRα, luciferase reporter in Cos-7 cells; assay type: cell-based; conditions: for Emax: COS-7, induction level relative to reference XCT0135908 at 2×10^−5 M (=100%), read-out: hNurr1_RXRaFL Emax (%); for EC50: Cos-7 cells, NURR-1-Gal4/RXRα, luciferase reporter, read-out: hNurr1_RXRaFL EC50
T1 construct: expressed in transfected cells; host or cells: Cos-7 cells
T1 sequence (P19793 whole entry, the tested form may be a part): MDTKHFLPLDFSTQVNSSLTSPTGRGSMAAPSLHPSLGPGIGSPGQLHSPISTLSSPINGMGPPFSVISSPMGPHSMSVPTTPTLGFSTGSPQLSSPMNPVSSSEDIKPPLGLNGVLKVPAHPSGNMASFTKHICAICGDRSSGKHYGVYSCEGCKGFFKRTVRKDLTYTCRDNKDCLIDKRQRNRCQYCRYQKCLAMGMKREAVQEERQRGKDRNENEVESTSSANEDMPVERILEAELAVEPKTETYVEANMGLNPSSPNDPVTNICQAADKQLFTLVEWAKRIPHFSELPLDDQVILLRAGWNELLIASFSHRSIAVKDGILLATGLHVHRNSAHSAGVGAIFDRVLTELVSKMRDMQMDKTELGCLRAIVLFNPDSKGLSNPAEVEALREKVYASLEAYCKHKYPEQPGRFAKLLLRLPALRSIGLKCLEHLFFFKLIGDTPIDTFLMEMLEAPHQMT
T1 sequence (P43354 whole entry partner, the tested form may be a part): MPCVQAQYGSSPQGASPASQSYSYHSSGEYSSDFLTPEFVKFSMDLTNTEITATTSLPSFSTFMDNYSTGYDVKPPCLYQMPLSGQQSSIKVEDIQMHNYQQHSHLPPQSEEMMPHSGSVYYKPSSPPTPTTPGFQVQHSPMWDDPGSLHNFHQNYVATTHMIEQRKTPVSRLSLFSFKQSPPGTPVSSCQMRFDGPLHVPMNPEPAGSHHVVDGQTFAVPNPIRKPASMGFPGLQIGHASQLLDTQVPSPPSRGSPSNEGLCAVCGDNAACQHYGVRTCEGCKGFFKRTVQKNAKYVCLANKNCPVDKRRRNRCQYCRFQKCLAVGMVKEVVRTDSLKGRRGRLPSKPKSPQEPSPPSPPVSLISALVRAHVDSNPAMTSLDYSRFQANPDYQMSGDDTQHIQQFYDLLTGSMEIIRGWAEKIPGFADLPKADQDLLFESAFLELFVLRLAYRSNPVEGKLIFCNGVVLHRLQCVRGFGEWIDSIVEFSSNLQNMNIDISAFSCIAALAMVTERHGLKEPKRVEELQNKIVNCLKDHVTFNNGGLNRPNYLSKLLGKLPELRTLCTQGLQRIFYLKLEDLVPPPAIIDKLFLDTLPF
T1 sequence (P04386 1-147 partner limits assumed): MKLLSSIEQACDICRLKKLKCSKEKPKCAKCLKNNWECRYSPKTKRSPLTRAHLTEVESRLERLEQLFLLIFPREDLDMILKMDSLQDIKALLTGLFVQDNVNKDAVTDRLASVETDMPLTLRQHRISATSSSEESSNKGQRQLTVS

[2] = molecular target: T2, NURR-1/RXRγ (Homo sapiens, UniProt P48443); assay: Transactivation test, NURR-1-Gal4/RXRγ, luciferase reporter in Cos-7 cells; assay type: cell-based; conditions: for Emax: COS-7, induction level relative to reference XCT0135908 at 2×10^−5 M (=100%), read-out: hNurr1_RXRgFL Emax (%); for EC50: Cos-7 cells, NURR-1-Gal4/RXRγ, luciferase reporter, read-out: hNurr1_RXRgFL EC50
T2 construct: expressed in transfected cells; host or cells: Cos-7 cells
T2 sequence (P48443 whole entry, the tested form may be a part): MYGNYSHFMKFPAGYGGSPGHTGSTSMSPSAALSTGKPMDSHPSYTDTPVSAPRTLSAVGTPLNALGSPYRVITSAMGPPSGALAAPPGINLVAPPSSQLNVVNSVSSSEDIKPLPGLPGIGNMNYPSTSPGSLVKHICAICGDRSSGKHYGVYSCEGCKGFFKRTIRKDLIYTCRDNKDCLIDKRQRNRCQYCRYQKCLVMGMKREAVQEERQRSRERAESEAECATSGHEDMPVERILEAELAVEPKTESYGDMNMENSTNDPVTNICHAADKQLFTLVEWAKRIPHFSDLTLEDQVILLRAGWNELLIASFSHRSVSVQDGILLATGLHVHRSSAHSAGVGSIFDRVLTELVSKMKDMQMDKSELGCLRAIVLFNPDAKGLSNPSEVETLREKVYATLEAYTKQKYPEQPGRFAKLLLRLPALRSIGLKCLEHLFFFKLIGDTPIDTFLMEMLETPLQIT
T2 sequence (P43354 whole entry partner, the tested form may be a part): as the sequence (P43354 whole entry partner, the tested form may be a part) above
T2 sequence (P04386 1-147 partner limits assumed): as the sequence (P04386 1-147 partner limits assumed) above

[3] = Plasma pharmacokinetics in mice after oral administration; assay type: in vivo; conditions: mouse, male C57/Bl6 mice, oral 10 mg/kg; for AUC: sampling 15 min to 7 h, log-linear trapezoidal method, read-out: AUCplasma; for Cmax: suspension in 1% methylcellulose/0.1% Poloxamer 188
Description: (§1) Three series of in vivo tests were carried out with compounds representative of the invention, for the purpose of determining their pharmacokinetic plasma profile and their brain penetration.
1. Study of the Plasma Phannacokinectis in Mice After Oral Administration
Male C57/B16 mice (25-30 g) originating from the establishment Janvier, Le Genest-St-Isle, France were used for this study (9 mice per dose). The animals were fed with standard feed for rodents (Purina Mills, St. Louis, Mo.), placed in cages and subjected to light/darkness cycles of 12 h/12 h, the temperature of the room being maintained at 22±2° C. and the humidity level at 55±10%.
The mice were not deprived food before the administration. Water was provided at will throughout the study. The test compound was admistered orally at 10 mg/kg. For the oral administration at 10 mg/kg, the animals were green, by gavage, 10 mL/kg of a suspension of the test compound, prepared in 1% methylcellulose, 400 cps/0.1% Poloxamer 188/water.
The animals were sacrificed under anesthesia at times 15 min, 30 min, 1 h, 3 h and 7 h after gavage. The blood was collected at each time, and from each animal sacrificed 0.5 mL of blood collected in 1.5 mL tubes containing 20 μL of evaporated anticoagulant (solution of sodium heparinate at 1000 IU/mL) was centrifuged at 4500 g for 3 min in order to obtain approximately 200 μL of plasma. The plasma was divided up into 2 aliquots of 70 μL minimum, which were stoted at −20° C. until they were treated by protein precipitation and then analysis by liquid chromatography coupled to tandem mass spectrometry (LC-MS/MS) in order to quantify the compound tested.
The pharmacokinetic plasma parameters in the mice after oral administration were determined using a non-compartmental approach with the Phoenix WinNonLin software. The area under the curve (AUC0-1) was determined bv the log-linear trapezoidal method. The tesults are brought together in the following table.

[4] = Brain penetration in rats after intravenous administration; assay type: in vivo; conditions: rat; for Kp at 4 h: male, Wistar, intravenous, 4 mg/kg, ratio of Cmax brain to Cmax plasma after the 4 hours of infusion, rats, read-out: Kp (partition coefficient between the brain and the plasma); for Cmax at 4 h: male Wistar rats, 4 mg/kg iv infusion into the jugular vein for 4 hours, plasma at end of infusion
Description: as §1
2. Study of the Brain Penetration in Rats After Intravenous Administration
Male Wistar rats (250-300 g) originating from the establishment Janvier, Le Genest-St-Isle, France were used for this study (4 rats per study). The animals were fed with standard feed for rodents (Purina Mills, St. Louis, Mo.), placed in cages and subjected to light/darkness cycles of 12 h/12 h, the room temperature being maintained at 22±2° C. and the humidity level at 55±10%. The rats were not deprived food before the administration. Water was provided at will throughout the study.
The test compound was administered intravenously at 4 mg/kg by infusion into the jugular vein for 4 hours. For the intravenous administration, the animals were infused with 12 mL/kg of a solution of the test compound, prepared in 2% Cremophor EL/0.9% NaCl.
The animals were sacrificed under anesthesia after 4 hours of infusion. The blood and the brain were collected from each sacrificed animal 0.5 mL of blood collected in 1.5 mL tubes containing 20 μL of evaporated anticoagulant (solution of sodium heparinate at 1000 IU/mL) was centrifuged at 4500 g for 3 min in order to obtain approximately 200 μL of plasma. The plasma was divided up into 2 aliquots of 70 μL minimum, which were stored at −20° C. until they were treated by protein precipitation and then analysis by liquid chromatography coupled to tandem mass spectrometry (LC-MS/MS) in order to quantify the compound tested.
The brains were immersed in liquid nitrogen directly after they were removed, then stored at −20° C. for analysis. The brains were then ground in the presence of an aqueous/organic solvent mixture in order to obtain a homogenate. These homogenates were then centrifuged and the compound tested was extracted from the supernatant obtained, by liquid-liquid extraction, and then quantified by LC-MS/MS.
The brain penetration in the rats is represented by the Kp, which is the partition coefficient between the brain and the plasma. It is calculated by the ratio of the concentration measured in the brain (Cmax brain) and the plasma (Cmax plasma) after the 4 hours of infusion.

[5] = induction level relative to reference XCT0135908 at 2×10^−5 M (=100%)

Row | Compound | Emax [1] [%] | EC50 [1] [nM] | Emax [2] [%] | EC50 [2] [nM] | AUC [3] [ng·h/mL] | Cmax [3] [ng/mL] | Kp at 4 h [4] | Cmax at 4 h [4] [ng/mL] | melting point [°C] | hNurr1_RXRaFL Emax (%) [1, 5] [%] | hNurr1_RXRgFL Emax (%) [2, 5] [%]
1 | CC(C)c1ccc2c(c1)OC(C)(C)CN2c1cccc(N2CC(C(=O)O)C2)c1 [Example 228, 1-[3-(7-isopropyl-2,2 dimethyl-3H-1,4-benzoxazin-4-yl)phenyl]azetidine-3-carboxylic acid] | 111 | 97 | 112 | 147 | 15500 | 6970 | 0.29 | 2160 | 64 to 70 |  | 
2 | CC(C)CC1Oc2cc(C(F)(F)F)ccc2N(c2cccc(N3CC(C(=O)O)C3)c2)C1=O (single isomer, unassigned; isomer 1) [Example 246-1, 1-[3-[2-isobutyl-3-oxo-7-(trifluoromethyl)-1,4-benzoxazin-4-yl]phenyl]azetidine-3-carboxylate acid, isomer 1] |  | 7 |  | 50 | 48200 | 15200 | 0.13 | 5800 | 68 to 74 | 97 | 95
3 | CC(C)c1cc2c(c(-c3cccc(N4CC(C(=O)[O-])C4)c3)c1)NCC1(CCC1)O2.[Na+] [Example 196, sodium 1-[3-(7-isopropylspiro[3,4-dihydro-1,4-benzoxazine-2,1′-cyclobutane]-5-yl)phenyl]azetidine-3-carboxylate] | 98 | 11 | 86 | 42 | 34100 | 14100 | 0.44 | 1920 | 143 to 154 |  | 
4 | CC(C)c1cc2c(c(-c3cccc(N4CC(C(=O)O)C4)c3)c1)NCCC(C)(C)O2 [Example 200, 1-[3-(8-isopropyl-2,2-dimethyl-4,5-dihydro-3H-1,5-benzoxazepin-6-yl)phenyl]azetidine-3-carboxylic acid] | 95 | 127 | 78 | 244 | 2920 | 3800 | 0.19 | 1010 | 74 to 79 |  | 
5 | CC(C)c1cc2c(c(-c3cccc(N4CC(C(=O)O)C4)c3)c1)NCCC2 [Example 199, 1-[3-(6-isopropyl-1,2,3,4-tetrahydroquinolin-8-yl)phenyl]azetidine-3-carboxylic acid] | 103 | 24 | 117 | 95 | 19000 | 17500 | 0.28 | 4920 | 77 to 79 |  | 
6 | CC1(C)CN(c2cccc(N3CC(C(=O)[O-])C3)c2)c2ccc(C(C)(C)C)cc2O1.[Na+] [Example 225, sodium 1-[3-(7-tert-butyl-2,2-dimethyl-3-H-1,4-benzoxazin-4-yl)phenyl]azetidine-3-carboxylate] | 113 | 79 | 122 | 173 | 13700 | 6430 | 0.42 | 3260 | 223 to 227 |  | 
7 | CNC(=O)C1CN(c2cccc(N3CC(C)(C)Oc4cc(C(F)(F)F)ccc43)c2)C1 [Example 274, 1-[3-[2,2-dimethyl-7-(trifluoromethyl)3H-1,4-nemzoxazin-4-yl]phenyl]-N-methylazetidine-3-carboxamide] | 110 | 6 | 110 | 8 | 576 | 252 | 3.06 | 337 |  |  | 

More lines, in order of falling EC50 [1], values ahead:

Row | Emax [1] [%] | EC50 [1] [nM] | Emax [2] [%] | EC50 [2] [nM] | AUC [3] [ng·h/mL] | Cmax [3] [ng/mL] | Kp at 4 h [4] | Cmax at 4 h [4] [ng/mL] | melting point [°C] | hNurr1_RXRaFL Emax (%) [1, 5] [%] | hNurr1_RXRgFL Emax (%) [2, 5] [%] | Compound
8 | 110 | 6 | 123 | 12 | 372 | 584 | 1.81 | 98 | 100 |  |  | CC1(C)CN(c2cccc(N3CC(C(N)=O)C3)c2)c2ccc(C(F)(F)F)cc2O1 [Example 273, 1-[3-[2,2-dimethyl-7-(trifluoromethyl)-3H-1,4-benzoxazin-4-yl]phenyl]azetidine-3-carboxamide]
9 | 91 | 5 | 80 | 23 | 5190 | 2740 | 1.27 | 1360 | 205 to 213 |  |  | CC1(C)CNc2c(cc(C(C)(C)C)cc2-c2cccc(N3CC(C(=O)[O-])C3)c2)O1.[Na+] [Example 187, sodium 1-[3-(7-tert-butyl-2,2-dimethyl-3,4-dihydro-1,4-benzoxazin-5-yl)phenyl]azetidine-3-carboxylate]
10 | 102 | 3 | 94 | 11 | 12100 | 6420 | 0.15 | 932 | 61 to 64 |  |  | CCC1COc2cc(C(F)(F)F)cc(-c3cccc(N4CC(C(=O)O)C4)c3)c2N1 (centres unmarked) [Example 186, 1-[3-[3-ethyl-7-(trifluoromethyl)-3.4-dihydro-2H-1,4-benzoxazin-5-yl]phenyl]azetidine-3-carboxylic acid]
11 | 113 | 0.81 | 99 | 2 | 33700 | 7560 | 0.36 | 7660 | 172 to 195 |  |  | CC1(C)C=C(c2cccc(N3CC(C(=O)[O-])C3)c2)c2ccc(C(F)(F)F)cc2O1.[Na+] [Example 263, sodium 1-[3-[2,2-dimethyl-7-(trifluoromethyl)chromen-4-yl]phenyl]azetidine-3-carboxylate]
